Laboratory results published in patent US20150315188A1, “COMPOUNDS AND METHODS FOR TREATMENT OF HYPERTENSION” (MEDIVATION TECHNOLOGIES, INC., priority 2012, published 2015).

Assays:
[1] = target: T1, Human adrenergic α2B receptor (Homo sapiens, UniProt P18089); assay: Radioligand binding, adrenergic α2B (Protocol Group B); design: purchased Milipore (Millipore); conditions: for Percentage inhibition of ligand binding, Adrenergic α2B (10 nM) / inhibition at 0.01 µM: 10 nM compound; for Percentage inhibition of ligand binding, Adrenergic α2B (10 nM) / Percentage inhibition of ligand binding, Adrenergic α2B (30 nM) / Percentage inhibition of ligand binding, Adrenergic α2B (0.1 μM) / Ki / inhibition at 0.01 µM / inhibition at 0.03 µM / inhibition at 0.1 µM: Protocol Group B; for Percentage inhibition of ligand binding, Adrenergic α2B (10 nM): 0.01 µM; for Percentage inhibition of ligand binding, Adrenergic α2B (30 nM) / inhibition at 0.03 µM: 30 nM compound; for Percentage inhibition of ligand binding, Adrenergic α2B (30 nM): 0.03 µM; for Percentage inhibition of ligand binding, Adrenergic α2B (0.1 μM) / inhibition at 0.1 µM: 0.1 μM compound; for Ki: estimated Ki, read-out: Ki α2B; for Percentage inhibition of ligand binding, Adrenergic α2B, 0.1 nM: 0.0001 µM; for inhibition at 0.01 µM: read-out: Percentage inhibition of ligand binding, Adrenergic α2B (10 nM); for inhibition at 0.03 µM: read-out: Percentage inhibition of ligand binding, Adrenergic α2B (30 nM); for inhibition at 0.1 µM: read-out: Percentage inhibition of ligand binding, Adrenergic α2B (0.1 μM)
T1 sequence (P18089 1-450): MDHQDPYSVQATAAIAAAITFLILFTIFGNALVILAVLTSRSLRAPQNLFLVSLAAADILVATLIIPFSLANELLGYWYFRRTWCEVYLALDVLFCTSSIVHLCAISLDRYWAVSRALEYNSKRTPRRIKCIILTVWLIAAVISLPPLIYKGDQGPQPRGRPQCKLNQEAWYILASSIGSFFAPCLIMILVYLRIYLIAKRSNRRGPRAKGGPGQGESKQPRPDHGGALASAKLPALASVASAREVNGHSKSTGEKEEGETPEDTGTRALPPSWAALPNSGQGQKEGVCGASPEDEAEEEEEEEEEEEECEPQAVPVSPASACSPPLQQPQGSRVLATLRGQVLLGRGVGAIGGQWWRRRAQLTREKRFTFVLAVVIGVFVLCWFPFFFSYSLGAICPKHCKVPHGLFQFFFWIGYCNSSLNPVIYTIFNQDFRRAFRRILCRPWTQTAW
Outline: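 Compounds at various concentrations in 1% DMSO were tested on recombinant membranes in Tris-HCl pH 7.4 buffer containing MgCl2, CaCl2 and 0.2% BSA.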

[2] = target: T2, Human adrenergic α1B receptor (Homo sapiens, UniProt P35368); assay: β-Arrestin GPCR functional assay, adrenergic α1B (Protocol B); type: cell-based; conditions: for IC50: β-arrestin, antagonist vs nor-epinephrine EC80; for Percentage inhibition, Adrenergic α1B / inhibition at 0.1 µM / inhibition at 0.3 µM: nor-epinephrine at EC80 (50 nM); for inhibition at 0.1 µM / inhibition at 0.3 µM: read-out: Percentage inhibition, Adrenergic α1B
T2 sequence (P35368 1-520): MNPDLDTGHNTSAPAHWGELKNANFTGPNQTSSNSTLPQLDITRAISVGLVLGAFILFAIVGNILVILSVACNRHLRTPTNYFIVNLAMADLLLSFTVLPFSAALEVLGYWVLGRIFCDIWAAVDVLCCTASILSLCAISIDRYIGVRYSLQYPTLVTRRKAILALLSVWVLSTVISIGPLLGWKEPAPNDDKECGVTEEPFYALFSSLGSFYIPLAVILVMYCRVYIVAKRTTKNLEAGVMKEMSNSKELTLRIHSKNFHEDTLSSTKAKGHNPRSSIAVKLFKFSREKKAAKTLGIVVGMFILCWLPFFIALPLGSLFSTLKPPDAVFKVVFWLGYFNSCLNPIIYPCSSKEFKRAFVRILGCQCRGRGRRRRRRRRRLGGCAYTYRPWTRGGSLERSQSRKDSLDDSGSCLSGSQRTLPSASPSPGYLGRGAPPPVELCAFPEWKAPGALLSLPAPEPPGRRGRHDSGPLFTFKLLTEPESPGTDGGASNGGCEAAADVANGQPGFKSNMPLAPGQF
Protocol: To evaluate the activity of compounds in β-Arrestin GPCR functional assays, recombinant CHO cell line (DiscoveRX), over expressed with human adrenergic α1B receptor were used. The experiment was done with a kit of DiscoveRX as per recommended protocol of the supplier. Cells were harvested from culture flask using cell dissociation solution (CDS) and plated at a density of 12,000 cells/well in CP reagent (supplied with the kit) in a half area 96-well white polystyrene plate. After 24 h incubation at 37° C., compounds at various concentrations in 1% (final) DMSO were charged to the cells for 30 min at 37° C. Active nor-epinephrine (-NE) at its EC80 concentrations (50 nM) were then added to the cells and incubated for another 90 min at 37° C. Detection mix was prepared by mixing Path Hunter cell assay buffer, Emerald II solution and Galactone star solution in a ratio of 19:5:1 and incubated with the cells for 60 min at RT in the dark. The reading was taken in Envision at luminescence mode. Biochemical assay results are presented as the percent Inhibition in Table B2a, or IC50 values in Table B2b.

[3] = target: T3, Human adrenergic α2A receptor (Homo sapiens, UniProt P08913); assay: β-Arrestin GPCR functional assay, adrenergic α2A (Protocol B); type: cell-based; conditions: for IC50: β-arrestin, antagonist vs nor-epinephrine EC80; for Percentage inhibition, Adrenergic α2A / inhibition at 0.1 µM / inhibition at 0.3 µM: nor-epinephrine at EC80 (270 nM); for inhibition at 0.1 µM / inhibition at 0.3 µM: read-out: Percentage inhibition, Adrenergic α2A
T3 sequence (P08913 1-465): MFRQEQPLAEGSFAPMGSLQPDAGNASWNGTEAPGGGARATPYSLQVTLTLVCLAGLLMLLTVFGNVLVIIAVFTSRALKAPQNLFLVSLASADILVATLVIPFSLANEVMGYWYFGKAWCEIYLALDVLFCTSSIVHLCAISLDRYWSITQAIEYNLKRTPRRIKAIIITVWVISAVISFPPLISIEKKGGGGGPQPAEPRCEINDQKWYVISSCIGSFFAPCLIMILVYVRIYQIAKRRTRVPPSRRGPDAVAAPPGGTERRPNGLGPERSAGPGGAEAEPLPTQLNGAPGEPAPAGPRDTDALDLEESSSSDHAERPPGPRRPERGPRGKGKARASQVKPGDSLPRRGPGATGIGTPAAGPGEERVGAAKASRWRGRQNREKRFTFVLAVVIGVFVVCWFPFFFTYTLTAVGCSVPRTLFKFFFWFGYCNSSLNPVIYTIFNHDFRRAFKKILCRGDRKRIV
Outline: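 Antagonist mode: after 30 min compound pretreatment at 37 °C, 270 nM norepinephrine (EC80) was added for 90 min to CHO cells expressing human α2A. Luminescent enzyme-complementation detection (60 min, RT) quantified β-arrestin recruitment, expressed as percent inhibition or IC50.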

[4] = 0.1 nM compound, concentration series

| SMILES | Percentage inhibition of ligand binding, Adrenergic α2B (10 nM) [1] [%] | Percentage inhibition of ligand binding, Adrenergic α2B (30 nM) [1] [%] | Percentage inhibition of ligand binding, Adrenergic α2B (0.1 μM) [1] [%] | Ki [1] [nM] | IC50 [2] [nM] | IC50 [3] [nM] | inhibition at 0.01 µM [1] [%] | inhibition at 0.03 µM [1] [%] | inhibition at 0.1 µM [1] [%] | further results |
| --- | --- | --- | --- | --- | --- | --- | --- | --- | --- | --- |
| Cc1cc(C)c2c(c1)c1c(n2CC(C)(O)c2cccnc2)CCN2CCCC12 (single isomer, unassigned) [44b] | 98 | 98 | 100 | 0.81 | 252 | 909 | – | – | – | – |
| Cc1cc(C)c2c(c1)c1c(n2CC(C)(O)c2ccncc2)CCN2CCCC12 (single isomer, unassigned) [19b] | 91 | 97 | 99 | 2.4 | 351 | 5010 | – | – | – | Percentage inhibition of ligand binding, Adrenergic α2B, 0.032 nM ([1]; 0.032 nM compound, concentration series, 32 pM): 6%; Percentage inhibition of ligand binding, Adrenergic α2B, 0.1 nM [1, 4]: 0%; Percentage inhibition of ligand binding, Adrenergic α2B, 0.32 nM ([1]; 0.32 nM compound, concentration series, 0.00032 µM): 2%; Percentage inhibition of ligand binding, Adrenergic α2B, 1 nM ([1]; 1 nM compound, concentration series, 0.001 µM): 4%; Percentage inhibition of ligand binding, Adrenergic α2B, 3.2 nM ([1]; 3.2 nM compound, concentration series, 0.0032 µM): 31%; Percentage inhibition of ligand binding, Adrenergic α2B, 0.032 μM ([1]; 0.032 μM compound, concentration series, 0.032 µM): 95%; Percentage inhibition, Adrenergic α1B ([2]; 0.1 μM compound): 25%; Percentage inhibition, Adrenergic α1B ([2]; 0.3 μM compound): 52%; Percentage inhibition, Adrenergic α2A ([3]; 0.1 μM compound): 24%; Percentage inhibition, Adrenergic α2A ([3]; 0.3 μM compound): 20% |
| Cc1cc2c3c(n(CC(C)(O)c4ccncc4)c2cc1Cl)CCN1CCCC31 (single isomer, unassigned) [50a] | – | – | – | 0.75 | 47 | 713 | 95 | 99 | 100 | – |
| Cc1ccc2c(c1)c1c(n2CC(O)c2ccncc2)CC[N+]2([O-])CCCC12 (stereo not shown) [compound 23, 7-(2-hydroxy-2-(pyridin-4-yl)ethyl)-10-methyl-1,2,3,4,5,6,7,11c-octahydroindolizino[7,8-b]indole 4-oxide] | – | – | – | 2.24 | 1210 | – | 65 | 88 | 92 | inhibition at 0.0001 µM ([1]; 0.1 nM compound, concentration series, read-out: Percentage inhibition of ligand binding, Adrenergic α2B, 0.1 nM): 13%; inhibition at 0.00032 µM ([1]; 0.32 nM compound, concentration series, read-out: Percentage inhibition of ligand binding, Adrenergic α2B, 0.32 nM): 5%; inhibition at 0.001 µM ([1]; 1 nM compound, concentration series, read-out: Percentage inhibition of ligand binding, Adrenergic α2B, 1 nM): 2%; inhibition at 0.0032 µM ([1]; 3.2 nM compound, concentration series, read-out: Percentage inhibition of ligand binding, Adrenergic α2B, 3.2 nM): 40%; inhibition at 0.32 µM ([1]; 0.32 μM compound, concentration series, read-out: Percentage inhibition of ligand binding, Adrenergic α2B, 0.32 μM): 105%; inhibition at 0.1 µM ([2]; 0.1 μM compound): 15%; inhibition at 0.3 µM ([2]; 0.3 μM compound): 15%; inhibition at 0.1 µM ([3]; 0.1 μM compound): 1%; inhibition at 0.3 µM ([3]; 0.3 μM compound): 1% |
| Cc1ccc2c(c1)c1c(n2CC(C)(O)c2ccncc2)CCN2CCCC12 (single isomer, unassigned) [13b] | – | – | – | 1.22 | 150 | 806 | – | – | – | Percentage inhibition, Adrenergic α1B ([2]; 0.1 μM compound): 32%; Percentage inhibition, Adrenergic α1B ([2]; 0.3 μM compound): 61%; Percentage inhibition, Adrenergic α2A ([3]; 0.1 μM compound): 23%; Percentage inhibition, Adrenergic α2A ([3]; 0.3 μM compound): 30% |
| Cc1ccc2c(c1)c1c(n2CC(C)(O)c2ccncc2)CCN2CCCC12 (single isomer, unassigned) [13a] | – | – | – | 1.85 | 100 | 2240 | – | – | – | inhibition at 0.1 µM ([2]; 0.1 μM compound): 49%; inhibition at 0.3 µM ([2]; 0.3 μM compound): 74%; inhibition at 0.1 µM ([3]; 0.1 μM compound): 14%; inhibition at 0.3 µM ([3]; 0.3 μM compound): 21% |
| Cc1cc(C)c2c(c1)c1c(n2CC(C)(O)c2cccnc2)CCN2CCCC12 (single isomer, unassigned) [44a] | 71 | – | – | 2.2 | 684 | 5180 | – | 87 | 95 | – |
| Cc1ccc2c(c1)c1c(n2CC(O)c2ccncc2F)CCN2CCCC12 (single isomer, unassigned) [14b] | 98 | 100 | 96 | 1.1 | 25 | 424 | – | – | – | Percentage inhibition of ligand binding, Adrenergic α2B, 0.1 nM [1, 4]: 18%; Percentage inhibition, Adrenergic α1B ([2]; 0.1 μM compound): 76%; Percentage inhibition, Adrenergic α1B ([2]; 0.3 μM compound): 86%; Percentage inhibition, Adrenergic α2A ([3]; 0.1 μM compound): 13%; Percentage inhibition, Adrenergic α2A ([3]; 0.3 μM compound): 44% |
| Cc1cc(F)c2c(c1)c1c(n2CC(C)(O)c2ccncc2)CCN2CCCC12 (single isomer, unassigned) [81a] | – | – | – | 0.91 | 91 | 1250 | 96 | 99 | 99 | – |
| CCCOC(Cn1c2c(c3cc(C)ccc31)CN(C)CC2)c1ccncc1 (single isomer, unassigned) [42b] | 86 | 97 | 100 | 1.3 | 1140 | 5220 | – | – | – | – |
| Cc1ccc2c(c1)c1c(n2CC(C)(O)c2ccnc(F)c2)CCN2CCCC12 (single isomer, unassigned) [48b] | 92 | 93 | 91 | 0.89 | 123 | 491 | – | – | – | – |
| CC(O)(Cn1c2c(c3cc(Cl)cc(F)c31)C1CCCN1CC2)c1ccncc1 (single isomer, unassigned) [52a] | – | – | – | 0.84 | 149 | 1020 | 99 | 100 | 101 | – |
